IC50 data for 4 compounds are collected here from ChEMBL document CHEMBL1130652, “Design, synthesis and biological activity of a pyrrolo [2,1-c][1,4]benzodiazepine (PBD)-distamycin hybrid” (Bioorg Med Chem Lett, 1998).

pIC50: −log10 of the molar value.

In assay [1] the target is Nucleic Acid. As to the kind of experiment: Inhibition of human estrogen receptor(ER) polymerase-chain reaction product. The class given is functional.
For assay [2], the system named is K562. As to the kind of experiment: In vitro effect on human leukemia K562 cell proliferation. It counts as functional, cell-based.

The pIC50 is the negative decadic logarithm of the IC50, by convention in mol/L. Lower therefore signals a high IC50.

As to `COc1cc2c(cc1OCCC(=O)Nc1cc(C(=O)Nc3cc(C(=O)Nc4cc(C(=O)NCCC(=N)N)n(C)c4)n(C)c3)n(C)c1)N=C[C@@H]1CCCN1C2=O`, the negative-log IC50 (pIC50) in assay [1] is 5.10; in assay [2] it was 6.70.
Take `Cn1cc(NC(=O)c2cc(NC(=O)c3cc(NC=O)cn3C)cn2C)cc1C(=O)NCCC(=N)N` [STALLIMYCIN]: the pIC50 in assay [1] is 4.30; in assay [2], 5.30.
Regarding `COC(=O)CCOc1cc2c(cc1OC)C(=O)N1CCC[C@H]1C=N2.Cn1cc(NC(=O)c2cc(NC(=O)c3cc(NC=O)cn3C)cn2C)cc1C(=O)NCCC(=N)N`, the negative logarithm of the IC50 (pIC50) in assay [1] is 4.30; in assay [2], 6.00.
For `COC(=O)CCOc1cc2c(cc1OC)C(=O)N1CCC[C@H]1C=N2` the same measures were less than 3.52 and 6.00.
